Experimental findings from publication PMC4980623 (2016) are described below.

Experiment [1] deals with HTG22 (DNA, G4) AGGGTTAGGGTTAGGGTTAGGG
The experiment is described as follows: UV-vis absorption titration. The conditions noted are these: K+ (100 mM; K+ and Na+ swapped elsewhere in the source), 15 μM compound, 0-60 μM DNA, Tris-HCl.

Experiment [2] relates to c-myc (pu27) (DNA, G4) TGGGGAGGGTGGGGAGGGTGGGGAAGG
The experiment is described as follows: FRET melting. The note with it: K+ (100 mM; K+ and Na+ swapped elsewhere in the source); various concentrations.

In experiment [3] the test system is HTG22 (5'-biotin, SPR) (DNA, G4) AGGGTTAGGGTTAGGGTTAGGG
The experiment is described as follows: SPR kinetics, bivalent ligand model. The note with it: K+ (100 mM; K+ and Na+ swapped elsewhere in the source), stronger of two sites. Background: Surface plasmon resonance follows binding to a sensor surface in real time, without labels.

For experiment [4], the system named is Hairpin DNA (5'-biotin, SPR) (DNA, hairpin) TTGGCCAATGTTTGGCCAA
Kind of experiment: SPR.

Experiment [5] concerns HTG22 (FRET, FAM/TAMRA) (DNA, G4) AGGGTTAGGGTTAGGGTTAGGG
Kind of experiment: FRET melting. The note with it: 20 μM compound, DNA:drug 1:10.

The test system of experiment [6] is HTG22 (DNA, G4) AGGGTTAGGGTTAGGGTTAGGG
The experiment is described as follows: CD titration, 285 nm. The note with it: K+ (100 mM; K+ and Na+ swapped elsewhere in the source); 5 μM DNA, Tris-HCl.

For experiment [7], the system named is c-kit 1 (DNA, G4) GGGAGGGCGCTGGGAGGAGGG
The experiment is described as follows: FRET melting. The conditions noted are these: various concentrations.

Experiment [8] concerns Hairpin DNA (DNA, hairpin) TTGGCCAATGTTTGGCCAA
Kind of experiment: UV melting, 260 nm. The conditions noted are these: 100 mM KCl; DNA:drug 1:10, 3 μM DNA; 20 mM cacodylic acid buffer, pH 7.3.

Where [9] appears, read: K+ (100 mM; K+ and Na+ swapped elsewhere in the source).
Setting [10] is: Na+ (100 mM; K+ and Na+ swapped elsewhere in the source).

Regarding `CN1CCN(Cc2nc3ccc4c(c3[nH]2)C(=O)c2ccccc2C4=O)CC1`, the binding entry in experiment [1] (16.41% hypochromicity, 3 nm red shift) is given as “yes”; in experiment [2], “no”; in experiment [6], “yes”; in experiment [7] (setting [9]), “yes”; in experiment [7] (setting [10]) it was “no”. In addition, in experiment [3] (Ka1 1.65 × 10^5), the Ka2 was found to be 169000 M⁻¹. The compound also showed a Ka in experiment [4] of 60000 M⁻¹. The “Delta Tm” value was determined as 5.85 °C in experiment [5] (setting [9]), 0.55 °C in experiment [5] (setting [10]) and 0.03 °C in experiment [8].
Regarding `C[N+]1(C)CCN(Cc2nc3ccc4c(c3[nH]2)C(=O)c2ccccc2C4=O)CC1`, the binding entry is “yes” in experiment [1] (16.89% hypochromicity, 1 nm red shift); “no” in experiment [2]; “yes” in experiment [6]; “yes” in experiment [7] (setting [9]); “no” in experiment [7] (setting [10]). This compound also registered a Ka2 in experiment [3] (Ka1 2.82 × 10^5) of 384000 M⁻¹. Further, in experiment [4], the Ka stood at 40000 M⁻¹. The results for the “Delta Tm” value in experiment [5] (setting [9]), in experiment [5] (setting [10]) and in experiment [8] were 8.04 °C, 1.00 °C and 0.10 °C, respectively.
